This is an account of results in patent publication US11786530B2, “Method against severe acute respiratory syndrome coronavirus 2 infection” (National Yang Ming Chiao Tung University, priority 2021, dated 2023).

Each structure is given as a SMILES string.

The test system of one assay is SARS-CoV-2. The conditions noted are these: model cell lines; cited from earlier work.
Another assay concerns SARS-CoV-2 WA strain. Kind of assay: Inhibition of SARS-CoV-2 in infected Vero E6 cells (MTT, OD590) with ZIP delta synergy score. The format is cell-based. The conditions noted are these: Severe acute respiratory syndrome coronavirus 2, Vero C1008, 72 h, read-out: Inhibition rate.

Turning to `CN(Cc1cnc2nc(N)nc(N)c2n1)c1ccc(C(=O)N[C@@H](CCC(=O)O)C(=O)O)cc1` [MTX, methotrexate], the “inhibition of SARS-CoV-2 replication” value in the assay with SARS-CoV-2 is reported as “dose-dependent, potent inhibition”. For the same compound, the inhibition – broadly, the relative decrease from the control value, in per cent – at 0.2 µM in the assay with SARS-CoV-2 WA strain (Comparative group 2: MTX 0.2 μM, remdesivir 0 μM, Vero E6 cells, 3 days) came out at 11.7%.

With `CCC(CC)COC(=O)[C@H](C)N[P@](=O)(OC[C@H]1O[C@@](C#N)(c2ccc3c(N)ncnn23)[C@H](O)[C@@H]1O)Oc1ccccc1` [remdesivir], the inhibition at 3 µM in the assay on SARS-CoV-2 WA strain was 4.57%.
